Source: patent US10736897B2, “Compounds and methods of use thereof for treatment of cancer” (Araxes Pharma LLC, priority 2017, dated 2020)

Target: T1, KRAS G12C 1-169, his-tagged protein, GDP-loaded (Homo sapiens, UniProt P01116, G12C)
T1 construct: KRAS G12C 1-169, his-tagged protein, GDP-loaded; His tag
Assay: Biochemical assay: covalent modification of KRAS G12C measured by mass spectrometry (RapidFire/TOF or Q-Exactive)
Type: binding
Conditions: Modification Activity; modification percentage from deconvoluted MS peak intensities; compound concentration and incubation time for Table 2 not stated
Protocol: Test compounds are prepared as 10 mM stock solutions in DMSO (Fisher cat # BP-231-100). KRAS G12C 1-169, his-tagged protein, GDP-loaded is diluted to 2 μM or 0.5 μM in buffer (20 mM Hepes, 150 mM NaCl, 1 mM MgCl2). Compounds are tested for activity as follows:
Compounds are diluted to 50× final test concentration in DMSO in 96-well storage plates. Compound stock solutions are vortexed before use and observed carefully for any sign of precipitation. Dilutions are as follow: • For 100 μM final compound concentration, compounds are diluted to 5000 μM (5 μL 10 mM compound stock+5 μL DMSO and mixed well by pipetting. • For 30 μM final compound concentration, compounds are diluted to 1500 μM (3 μL 10 mM compound stock+17 μL DMSO) and mixed well by pipetting. • For 10 μM final compound concentration, compounds are diluted to 500 μM (2 μL 10 mM compound stock+38 μL DMSO) and mixed well by pipetting. 49 μL of the stock protein solution is added to each well of a 96-well PCR plate (Fisher cat #1423027). 1 μl of the diluted 50× compounds are added to appropriate wells in the PCR plate using 12-channel pipettor. Reactions are mixed carefully and thoroughly by pipetting up/down with a 200 μL multi-channel pipettor. The plate is sealed well with aluminum plate seal, and stored in drawer at room temperature for 10 minutes, 30 minutes, 2 hours or 24 hours. 5 μL of 2% formic acid (Fisher cat # A117) in de-ionized H2O is then added to each well followed by mixing with a pipette. The plate is then resealed with aluminum seal and stored on dry ice until analyzed as described below.
The above described assays are analyzed by mass spectrometry according to one of the following two procedures:
The MS instrument is set to positive polarity, 2 GHz resolution, and low mass (1700) mode and allowed to equilibrate for 30 minutes. The instrument is then calibrated, switched to acquisition mode and the appropriate method loaded.
After another 30 minute equilibration time, a blank batch (i.e., buffer) is run to ensure equipment is operating properly. The samples are thawed at 37° C. for 10 minutes, briefly centrifuged, and transfer to the bench top. Wells A1 and H12 are spiked with 1 μL 500 μM internal standard peptide, and the plates centrifuged at 2000×g for 5 minutes. The method is then run and masses of each individual well recorded.
The masses (for which integration data is desired) for each well are pasted into the platemap and exported from the analysis. Masses for the internal standards are exported as well. The data at 50 ppm is extracted for the +19 charge state, and identity of well A1 is assigned using the internal standard spike and integrated. Peak data is exported as a TOF list and the above steps are repeated individually, for the +20, 21, 22, 23, 24, and 25 charge states.
The masses and peak intensities of KRAS G12C protein species are measured using a Dionex RSLCnano system (Thermo Scientific) connected to a Q Exactive Plus mass spectrometer (Thermo Scientific).
[…] of sample is each loaded onto a Aeris™ 3.6 μm WIDEPORE C4 200 Å, LC Column 50×2.1 mm column maintained at 40° C. at a flow rate of 600 μL/min with […] (0.1% formic acid in acetonitrile). The liquid chromatography conditions are 20% solvent B for 1 minute, 20% to 60% solvent B for 1.5 minutes, 60% to 90% solvent for 0.5 minute, 90% solvent B for 0.2 minute, 90% to 20% solvent B for 0.2 minute, and then equilibrated for 1.6 minute before the following sample injection. The flow rate is maintained at 600 μL/min throughout the sample analysis.
The mass spectrometer is operated in profile mode at a resolution of 17500, 5 microscans, using 50 msec max injection time and an AGC target of 1×10^6, and a full mass range from 800-1850 m/z is recorded. The HCD trapping gas is optimized for maximum sensitivity for intact proteins. […]

| Structure (SMILES) | Binding % |
| --- | --- |
| C=CC(=O)N1C[C@H](C)N(c2ncnc3c(F)c(-c4c(C)ccc5cnn(C)c45)c(Cl)cc23)C[C@H]1C (atropisomer, axis not shown) [Compound 8, 1-((2R,5S)-4-((R)-6-chloro-7-(1,6-dimethyl-1H-indazol-7-yl)-8-fluoroquinazolin-4-yl)-2,5-dimethylpiperazin-1-yl)prop-2-en-1-one] | +++ (+++ indicates binding activity greater than 85%) |
| C=CC(=O)N1[C@H](C)CN(c2ncnc3c(F)c(-c4c(C)ccc5cnn(C)c45)c(Cl)cc23)C[C@@H]1C (atropisomer, axis not shown) [Compound 9, 1-((2S,6R)-4-((S)-6-chloro-7-(1,6-dimethyl-1H-indazol-7-yl)-8-fluoroquinazolin-4-yl)-2,6-dimethylpiperazin-1-yl)prop-2-en-1-one] | + (+ indicates binding activity greater than 0% and up to 50%) |
| C=CC(=O)N1[C@H](C)CN(c2ncnc3c(F)c(-c4c(C)ccc5cnn(C)c45)c(Cl)cc23)C[C@@H]1C (atropisomer, axis not shown) [Compound 10, 1-((2S,6R)-4-((R)-6-chloro-7-(1,6-dimethyl-1H-indazol-7-yl)-8-fluoroquinazolin-4-yl)-2,6-dimethylpiperazin-1-yl)prop-2-en-1-one] | ++ (++ indicates binding activity from 50 to 85%) |
| C=CC(=O)N1C[C@H](C)N(c2ncnc3c(F)c(-c4c(C)ccc5[nH]nc(N)c45)c(Cl)cc23)C[C@H]1C [Compound 5, 1-((2R,5S)-4-((R)-7-(3-amino-5-methyl-1H-indazol-4-yl)-6-chloro-8-fluoroquinazolin-4-yl)-2,5-dimethylpiperazin-1-yl)prop-2-en-1-one] | ++ (++ indicates binding activity from 50 to 85%) |
| C=CC(=O)N1C[C@H](C)N(c2ncnc3c(F)c(-c4c(C)ccc5[nH]nc(N)c45)c(Cl)cc23)C[C@H]1C [Compound 6, 1-((2R,5S)-4-((S)-7-(3-amino-5-methyl-1H-indazol-4-yl)-6-chloro-8-fluoroquinazolin-4-yl)-2,5-dimethylpiperazin-1-yl)prop-2-en-1-one] | + (+ indicates binding activity greater than 0% and up to 50%) |
| C=CC(=O)N1C[C@H](C)N(c2ncnc3c(F)c(-c4c(C)ccc5cnn(C)c45)c(Cl)cc23)C[C@H]1C [Compound 7, 1-((2R,5S)-4-((S)-6-chloro-7-(1,6-dimethyl-1H-indazol-7-yl)-8-fluoroquinazolin-4-yl)-2,5-dimethylpiperazin-1-yl)prop-2-en-1-one] | + (+ indicates binding activity greater than 0% and up to 50%) |
| C=CC(=O)N1CCN(c2c(C#N)cnc3c(F)c(-c4c(C)ccc5cnn(C)c45)c(Cl)cc23)CC1 [Compound 11, 4-(4-acryloylpiperazin-1-yl)-6-chloro-7-(1,6-dimethyl-1H-indazol-7-yl)-8-fluoroquinoline-3-carbonitrile] | +++ (+++ indicates binding activity greater than 85%) |
| C=CC(=O)N1CCN(c2c(C#N)cnc3c(F)c(-c4c(C)ccc5[nH]nc(C)c45)c(Cl)cc23)CC1 [Compound 12, 4-(4-acryloylpiperazin-1-yl)-6-chloro-7-(3,5-dimethyl-1H-indazol-4-yl)-8-fluoroquinoline-3-carbonitrile] | ++ (++ indicates binding activity from 50 to 85%) |
| C=CC(=O)N1CCN(c2c(C#N)cnc3c(F)c(-c4c(C)ccc5[nH]nc(C6CC6)c45)c(Cl)cc23)CC1 [Compound 13, 4-(4-acryloylpiperazin-1-yl)-6-chloro-7-(3-cyclopropyl-5-methyl-1H-indazol-4-yl)-8-fluoroquinoline-3-carbonitrile] | +++ (+++ indicates binding activity greater than 85%) |
| C=CC(=O)N1CCN(c2c(C#N)cnc3c(F)c(-c4c(C)ccc5cnn(C6CC6)c45)c(Cl)cc23)CC1 [Compound 14, 4-(4-acryloylpiperazin-1-yl)-6-chloro-7-(1-cyclopropyl-6-methyl-1H-indazol-7-yl)-8-fluoroquinoline-3-carbonitrile] | +++ (+++ indicates binding activity greater than 85%) |
| C=CC(=O)N1CCN(c2cnnc3cc(-c4c(C)ccc5cnn(C)c45)c(Cl)cc23)CC1 [Compound 15, 1-(4-(6-chloro-7-(1,6-dimethyl-1H-indazol-7-yl)cinnolin-4-yl)piperazin-1-yl)prop-2-en-1-one] | + (+ indicates binding activity greater than 0% and up to 50%) |
| C=CC(=O)N1CCN(c2cnnc3cc(-c4c(C)ccc5cnn(C6CC6)c45)c(Cl)cc23)CC1 [Compound 16, 1-(4-(6-chloro-7-(1-cyclopropyl-6-methyl-1H-indazol-7-yl)cinnolin-4-yl)piperazin-1-yl)prop-2-en-1-one] | + (+ indicates binding activity greater than 0% and up to 50%) |
| C=CC(=O)N1CCN(c2cnnc3cc(-c4c(C)ccc5[nH]nc(C)c45)c(Cl)cc23)CC1 [Compound 17, 1-(4-(6-chloro-7-(3,5-dimethyl-1H-indazol-4-yl)cinnolin-4-yl)piperazin-1-yl)prop-2-en-1-one] | + (+ indicates binding activity greater than 0% and up to 50%) |
| C=CC(=O)N1CCN(c2cnnc3cc(-c4c(C)ccc5[nH]nc(C6CC6)c45)c(Cl)cc23)CC1 [Compound 18, 1-(4-(6-chloro-7-(3-cyclopropyl-5-methyl-1H-indazol-4-yl)cinnolin-4-yl)piperazin-1-yl)prop-2-en-1-one] | + (+ indicates binding activity greater than 0% and up to 50%) |
| C=CC(=O)N1C[C@H](C)N(c2c(C#N)cnc3c(F)c(-c4c(C)ccc5cnn(C)c45)c(Cl)cc23)C[C@H]1C [Compound 19, 4-((2S,5R)-4-acryloyl-2,5-dimethylpiperazin-1-yl)-6-chloro-7-(1,6-dimethyl-1H-indazol-7-yl)-8-fluoroquinoline-3-carbonitrile] | + (+ indicates binding activity greater than 0% and up to 50%) |
| C=CC(=O)N1C[C@H](C)N(c2c(C#N)cnc3c(F)c(-c4c(C)ccc5cnn(C6CC6)c45)c(Cl)cc23)C[C@H]1C [Compound 20, 4-((2S,5R)-4-acryloyl-2,5-dimethylpiperazin-1-yl)-6-chloro-7-(1-cyclopropyl-6-methyl-1H-indazol-7-yl)-8-fluoroquinoline-3-carbonitrile] | + (+ indicates binding activity greater than 0% and up to 50%) |
| C=CC(=O)N1C[C@H](C)N(c2c(C#N)cnc3c(F)c(-c4c(C)ccc5[nH]nc(C)c45)c(Cl)cc23)C[C@H]1C [Compound 21, 4-((2S,5R)-4-acryloyl-2,5-dimethylpiperazin-1-yl)-6-chloro-7-(3,5-dimethyl-1H-indazol-4-yl)-8-fluoroquinoline-3-carbonitrile] | + (+ indicates binding activity greater than 0% and up to 50%) |
| C=CC(=O)N1[C@H](C)CN(c2c(C#N)cnc3c(F)c(-c4c(C)ccc5cnn(C)c45)c(Cl)cc23)C[C@@H]1C [Compound 22, 4-((3S,5R)-4-acryloyl-3,5-dimethylpiperazin-1-yl)-6-chloro-7-(1,6-dimethyl-1H-indazol-7-yl)-8-fluoroquinoline-3-carbonitrile] | ++ (++ indicates binding activity from 50 to 85%) |
| C=CC(=O)N1CCN(c2cc(C(F)(F)F)nc3c(F)c(-c4c(C)ccc5cnn(C)c45)c(Cl)cc23)CC1 [Compound 23, 1-(4-(6-chlroo-7-(1,6-dimethyl-1H-indazol-7-yl)-8-fluoro-2-(trifluoromethyl)quino-lin-4-yl)piperazin-1-yl)prop-2-en-1-one] | + (+ indicates binding activity greater than 0% and up to 50%) |
